These results are taken from patent US20080113994A1, “Annelated Quinoline Derivatives As Pesticide” (priority 2004, published 2008).

One assay relates to Meloidogyne incognita. As to the kind of experiment: Meloidogyne test (spray treatment). It is filed as in vivo. As to conditions: 20 g/ha, nematicidal effect from formation of galls on lettuce roots. As for the experimental part: Meloidogyne Test (Spray Treatment)
Solvent: 80 parts by weight of acetone
Containers are filled with sand, solution of active compound, Meloidogyne incognita egg/larvae suspension, and lettuce seeds. The lettuce seeds germinate and the plants develop. On the roots, galls are formed.
After the desired time, the nematicidal effect is determined in % from the formation of galls. 100% here means that no galls were found; 0% means that the number of galls on the treated plants corresponds to that in the untreated control.

The test system of assay [1] is larvae of the cabbage moth (Plutella xylostella). As to the kind of experiment: Plutella test. It is filed as in vivo. The conditions noted are these: for Kill rate in % after 7^d: 100 PPM, dipped cabbage leaves; for efficacy (in words): Plutella test. The source says: Solvent: 7 parts by weight of dimethylformamide
Emulsifier: 1 part by weight of alkylaryl polyglycol ether

Assay [2] deals with larvae of the army worm (Spodoptera frugiperda). As to the kind of experiment: Spodoptera frugiperda test (spray treatment). It counts as in vivo. The conditions noted are these: 500 g/ha, sprayed maize leaf disks. The source says: Spodoptera frugiperda Test (Spray Treatment)
The test system of assay [3] is eggs of the cotton bollworm (Heliothis virescens). As to the kind of experiment: Heliothis virescens egg test (spray treatment). It counts as in vivo. The conditions noted are these: 500 g/ha, sprayed soybean leaves, 100% = none of the larvae hatched. The source says:
Heliothis virescens Egg Test (Spray Treatment)

For assay [4], the system named is larvae of the mustard beetle (Phaedon cochleariae). As to the kind of experiment: Phaedon larvae test (spray treatment). As to conditions: 500 g/ha, sprayed Chinese cabbage leaf disks.
In assay [5] the test system is greenhouse red spider mite (Tetranychus urticae). As to the kind of experiment: Tetranychus test (OP-resistant/spray treatment). It counts as in vivo. From the text:
Tetranychus Test (OP-Resistant/Spray Treatment)
Disks of bean leaves (Phaseolus vulgaris) which are infested by all stages of the greenhouse red spider mite (Tetranychus urticae) are sprayed with an active compound preparation in the desired concentration.

Each structure is given as a SMILES string.

`COc1ccc(C2C3=C(CN(c4ccccc4)C3=O)Nc3cc4c(cc32)OCO4)cc1` (stereo not shown): in the assay with Meloidogyne incognita, the “Kill rate in % after 14^d” value stood at 70%.
Still for that read-out and setting: the result for `CCN1CC2=C(C1=O)C(c1ccc(OC)cc1)c1cc3c(cc1N2)OCO3` (stereo not shown) reads 70%.
Turning to `O=C1OCC2=C1C(c1cccc(Cl)c1)c1cc3c(cc1N2)OCO3` (stereo not shown) [Example 6], the “Kill rate in % after 7^d” value in assay [1] is given as 100%; in assay [2], 100%; in assay [3], 98%. The “efficacy (in words)” value in assay [1] is listed as “high efficacy”.
Turning to `COc1ccc2c(c1)NC1=C(C(=O)OC1)C2c1cc(OC)c(OC)c(OC)c1` (stereo not shown) [Example 9], in assay [1], the “Kill rate in % after 7^d” value was determined as 90% and the “efficacy (in words)” value is on record as “high efficacy”. The “Kill rate in % after 7^d” value in assay [2] is 100%.
Consider `O=C1OCC2=C1C(c1cccc(Br)c1)c1cc3c(cc1N2)OCO3` (stereo not shown) [Example 18], for which the “Kill rate in % after 7^d” value in assay [4] is listed as 100%; in assay [3], 98%.
The corresponding values for `O=C1OCC2=C1C(c1cccc(F)c1)c1cc3c(cc1N2)OCO3` (stereo not shown) [Example 20] are 83% and 96%.
Consider `Clc1cccc(C2C3=C(CCC3)Nc3cc4c(cc32)OCO4)c1` (stereo not shown) [Example 30], for which, in assay [5] (500 g/ha, after 7 d, sprayed bean leaf disks, all stages), the “Kill rate in % after 7^d” value is 70%. Further, the “efficacy (in words)” value in assay [5] (Tetranychus test) was “high efficacy”.
In the case of `COc1cc(OC)cc(C2C3=C(Nc4cc5c(cc42)OCO5)C(C)OC3=O)c1` (stereo not shown) [Example 45], the “Kill rate in % after 7^d” value stood at 100% in assay [4], 100% in assay [2] and 98% in assay [3].
With `COc1cc(OC)cc(C2C3=C(CCC3=O)Nc3cc4c(cc32)OCO4)c1` (stereo not shown) [Example 56], the “Kill rate in % after 7^d” value in assay [4] is recorded as 100%; in assay [2] it was 100%; in assay [3] it was 80%.
On to `COc1cc2c(cc1OC)C(c1ccc3c(c1)OC(F)(F)O3)C1=C(COC1=O)N2` (stereo not shown) [Example 68], for which, in the assay on Meloidogyne incognita, the “Kill rate in % after 14^d” value is given as 80%.
Turning to `COc1cc2c(cc1OC)C(c1ccc3c(c1)OCO3)C1=C(COC1=O)N2` (stereo not shown) [Example 72], the “Kill rate in % after 14^d” value in the assay with Meloidogyne incognita is 100%.
For the compound `O=C1OCC2=C1C(c1cc(C(F)(F)F)cc(Cl)c1F)c1cc3c(cc1N2)OCO3` (stereo not shown) [Example 113], the “Kill rate in % after 7^d” value is recorded as 100% in assay [4] and 95% in assay [3].
Take `COc1cc(C2C3=C(COC3=O)Nc3cc4c(cc32)OCO4)cc2c1OCO2` (stereo not shown) [Example 133]: the “Kill rate in % after 7^d” value in assay [4] worked out at 100%; in assay [2] it was 83%; in assay [3] it was 95%.
In the case of `COc1cc(OC)cc(C2C3=C(COC3=O)Nc3cc(OC)ccc32)c1` (stereo not shown) [Example 161], the “Kill rate in % after 7^d” value in assay [4], in assay [2] and in assay [3] was 100% throughout.
